# Reference: US12077503B2, “Substituted cyclic amides and their use as herbicides” (FMC CORPORATION, priority 2015, dated 2024)
# What was measured:
# Format in all cases: in vivo
# [1] = test system: water seeded rice seedlings (Rice, W. S. Jap, Oryza sativa cv. ‘Japonica—M202’); experiment: Test F flooded paddy test; design: key: 0 = no effect, 100 = complete control; settings: Flood
# [2] = test system: barnyardgrass (Echinochloa crus-galli); experiment: Test C postemergence; settings: scale 0 to 100, 0 no effect, 100 complete control
# Excerpt: (§1) Seeds of plant species selected from blackgrass (Alopecurus myosuroides), ryegrass, Italian (Italian ryegrass, Lolium multiflorum), wheat (winter wheat, Triticum aestivum), Galium (catchweed bedstraw, Galium aparine), corn (Zea mays), crabgrass, large (large crabgrass, Digitaria sanguinalis), foxtail, giant (giant foxtail, Setaria faberii), johnsongrass (Sorghum halepense), lambsquarters (Chenopodium album), morningglory (Ipomoea coccinea), nutsedge, yellow (yellow nutsedge, Cyperus esculentus), pigweed (Amaranthus retroflexus), ragweed (common ragweed, Ambrosia elatior), soybean (Glycine max), barnyardgrass (Echinochloa crus-galli), oilseed rape (Brassica napus), waterhemp (common waterhemp, Amaranthus rudis) and velvetleaf (Abutilon theophrasti) were planted into a blend of loam soil and sand and treated preemergence with test chemicals formulated in a non-phytotoxic solvent mixture which included a surfactant.
# (§2) At the same time, plants selected from these crop and weed species and also Kochia (Kochia scoparia), oat, wild (wild oat, Avena fatua), and chickweed (common chickweed, Stellaria media) were planted in pots containing Sunshine Redi-Earth® planting medium comprising spaghnum peat moss, vermiculite, starter nutrients and dolomitic limestone and treated with postemergence applications of test chemicals formulated in the same manner. Plants ranged in height from 2 to 18 cm (1- to 4-leaf stage) for postemergence treatments. Treated plants and controls were maintained in a greenhouse for 13 to 15 d, after which time all species were compared to controls and visually evaluated. Plant response ratings, summarized in Table C, are based on a scale of 0 to 100 where 0 is no effect and 100 is complete control. A dash (-) response means no test result.
# soybean (Glycine max) = experiment: Test C postemergence; settings: scale 0 to 100, 0 no effect, 100 complete control
# Excerpt: as §1, §2
# [3] = test system: waterhemp (common waterhemp, Amaranthus rudis); experiment: Test C postemergence; settings: scale 0 to 100, 0 no effect, 100 complete control
# Excerpt: as §1, §2
# [4] = test system: chickweed (common chickweed, Stellaria media); experiment: Test C postemergence; settings: scale 0 to 100, 0 no effect, 100 complete control
# Excerpt: as §1, §2
# [5] = test system: foxtail, giant (giant foxtail, Setaria faberii); experiment: Test C postemergence; settings: scale 0 to 100, 0 no effect, 100 complete control
# Excerpt: as §1, §2
# [6] = test system: wheat (winter wheat, Triticum aestivum); experiment: Test C postemergence; settings: scale 0 to 100, 0 no effect, 100 complete control
# Excerpt: as §1, §2
# Kochia (Kochia scoparia) = experiment: Test C postemergence; settings: scale 0 to 100, 0 no effect, 100 complete control
# Excerpt: as §1, §2
# [7] = test system: ragweed (common ragweed, Ambrosia elatior); experiment: Test C postemergence; settings: scale 0 to 100, 0 no effect, 100 complete control
# Excerpt: as §1, §2
# [8] = test system: velvetleaf (Abutilon theophrasti); experiment: Test C postemergence; settings: scale 0 to 100, 0 no effect, 100 complete control
# Excerpt: as §1, §2
# [9] = test system: barnyardgrass (Echinochloa crus-galli); experiment: Test C flooded paddy test; settings: Flood; for Plant response rating (scale of 0 to 100), Barnyardgrass: 0 is no effect, 100 is complete control
# Summary of the method: (§3)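 Rice, small-flower umbrella sedge, ducksalad and barnyardgrass at the 2-leaf stage were flooded to 3 cm, and compound was applied into the paddy water. After 13 to 15 d in a greenhouse, plants were rated visually against controls on a 0 (no effect) to 100 (complete control) scale.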
# rice (Oryza sativa) = experiment: Test C flooded paddy test; settings: Flood; for Plant response rating (scale of 0 to 100), Rice: 0 is no effect, 100 is complete control
# Summary of the method: as §3
# [10] = test system: ducksalad (Heteranthera limosa); experiment: Test C flooded paddy test; settings: Flood; for Plant response rating (scale of 0 to 100), Ducksalad: 0 is no effect, 100 is complete control
# Summary of the method: as §3
# [11] = test system: sedge, umbrella (small-flower umbrella sedge, Cyperus difformis); experiment: Test C flooded paddy test; settings: Flood; for Plant response rating (scale of 0 to 100), Sedge, Umbrella: 0 is no effect, 100 is complete control
# Summary of the method: as §3
# [12] = 31 g ai/ha, scale 0 to 100 (0 no effect, 100 complete control), 13 to 15 d
smiles,measurement,setting,value
"CN1C[C@H](c2ccc(F)c(F)c2)[C@@H](C(=O)Nc2cccc(F)c2F)C1=O [Compound 639, (3S,4S)—N-(2,3-difluorophenyl)-4-(3,4-difluorophenyl)-1-methyl-2-oxo-3-pyrrolidinecarboxamide]","Plant response rating: Rice, Water Seeded",[1]; 32 g ai/ha,0
same,"Plant response rating: Rice, Water Seed.",[1]; 64 g ai/ha,40
same,"Plant response rating: Rice, Water Seed.",[1]; 125 g ai/ha,50
same,"Plant response rating: Rice, Water Seeded",[1]; 250 g ai/ha,75
same,"Plant response rating, Barnyardgrass",[2]; 31 g ai/ha,20
same,"Plant response rating, Barnyardgrass",[2]; 62 g ai/ha,40
same,"Plant response rating, Barnyardgrass",[2]; 125 g ai/ha,70
same,"Plant response rating, Barnyardgrass",[2]; 250 g ai/ha,85
same,"Plant response rating, Soybean",soybean (Glycine max); 31 g ai/ha,0
same,"Plant response rating, Soybean",soybean (Glycine max); 62 g ai/ha,10
same,"Plant response rating, Soybean",soybean (Glycine max); 125 g ai/ha,15
same,"Plant response rating, Soybean",soybean (Glycine max); 250 g ai/ha,25
same,"Plant response rating, Waterhemp",[3]; 31 g ai/ha,10
same,"Plant response rating, Waterhemp",[3]; 62 g ai/ha,25
same,"Plant response rating, Waterhemp",[3]; 125 g ai/ha,30
same,"Plant response rating, Waterhemp",[3]; 250 g ai/ha,25
same,"Plant response rating, Chickweed",[4]; 31 g ai/ha,40
same,"Plant response rating, Chickweed",[4]; 62 g ai/ha,40
same,"Plant response rating, Chickweed",[4]; 125 g ai/ha,50
same,"Plant response rating, Chickweed",[4]; 250 g ai/ha,90
same,"Plant response rating, Foxtail, Giant",[5]; 31 g ai/ha,35
same,"Plant response rating, Foxtail, Giant",[5]; 62 g ai/ha,60
same,"Plant response rating, Foxtail, Giant",[5]; 125 g ai/ha,80
same,"Plant response rating, Foxtail, Giant",[5]; 250 g ai/ha,85
same,"Plant response rating, Wheat",[6]; 31 g ai/ha,0
same,"Plant response rating, Wheat",[6]; 62 g ai/ha,0
same,"Plant response rating, Wheat",[6]; 125 g ai/ha,0
same,"Plant response rating, Wheat",[6]; 250 g ai/ha,0
same,"Plant response rating, Kochia",Kochia (Kochia scoparia); 31 g ai/ha,40
same,"Plant response rating, Kochia",Kochia (Kochia scoparia); 62 g ai/ha,50
same,"Plant response rating, Kochia",Kochia (Kochia scoparia); 125 g ai/ha,80
same,"Plant response rating, Kochia",Kochia (Kochia scoparia); 250 g ai/ha,85
same,"Plant response rating, Ragweed",[7]; 31 g ai/ha,0
same,"Plant response rating, Ragweed",[7]; 62 g ai/ha,10
same,"Plant response rating, Ragweed",[7]; 125 g ai/ha,50
same,"Plant response rating, Ragweed",[7]; 250 g ai/ha,65
same,"Plant response rating, Velvetleaf",[8]; 31 g ai/ha,35
same,"Plant response rating, Velvetleaf",[8]; 62 g ai/ha,60
same,"Plant response rating, Velvetleaf",[8]; 125 g ai/ha,50
same,"Plant response rating, Velvetleaf",[8]; 250 g ai/ha,60
same,"Plant response rating, Barnyardgrass",[9]; [12],0
same,"Plant response rating (scale of 0 to 100), Barnyardgrass",[9]; 62 g ai/ha,50
same,"Plant response rating (scale of 0 to 100), Barnyardgrass",[9]; 125 g ai/ha,70
same,"Plant response rating (scale of 0 to 100), Barnyardgrass",[9]; 250 g ai/ha,75
same,"Plant response rating, Rice",rice (Oryza sativa); [12],0
same,"Plant response rating (scale of 0 to 100), Rice",rice (Oryza sativa); 62 g ai/ha,0
same,"Plant response rating (scale of 0 to 100), Rice",rice (Oryza sativa); 125 g ai/ha,20
same,"Plant response rating (scale of 0 to 100), Rice",rice (Oryza sativa); 250 g ai/ha,20
same,"Plant response rating, Ducksalad",[10]; [12],50
same,"Plant response rating (scale of 0 to 100), Ducksalad",[10]; 62 g ai/ha,75
same,"Plant response rating (scale of 0 to 100), Ducksalad",[10]; 125 g ai/ha,90
same,"Plant response rating (scale of 0 to 100), Ducksalad",[10]; 250 g ai/ha,100
same,"Plant response rating, Sedge, Umbrella",[11]; [12],0
same,"Plant response rating (scale of 0 to 100), Sedge, Umbrella",[11]; 62 g ai/ha,0
same,"Plant response rating (scale of 0 to 100), Sedge, Umbrella",[11]; 125 g ai/ha,0
same,"Plant response rating (scale of 0 to 100), Sedge, Umbrella",[11]; 250 g ai/ha,0
